{
  "source": "paper PMC7753040",
  "about": "“Discovery of a Potent RIPK3 Inhibitor for the Amelioration of Necroptosis-Associated Inflammatory Injury” (Frontiers in Cell and Developmental Biology, 2020)",
  "origin": "cited, not measured here",
  "test_system": "RIPK3",
  "set-up": "method as in Mandal et al., 2014",
  "details": "ref Mandal et al., 2014; cited from earlier work",
  "data": [
    {"smiles": "CC(C)S(=O)(=O)c1ccc2nccc(Nc3ccc4scnc4c3)c2c1", "note": "[GSK’872]", "values": [
      {"measurement": "induction of on-target apoptosis", "value": "able to induce on-target apoptosis"}
    ]}
  ]
}
